Target: T1, DC-SIGN (ECD tetramer) (Homo sapiens, UniProt Q9NNX6)
T1 construct: DC-SIGN full extracellular domain (ECD, residues 70-404, Thermo Fischer Scientific); made in house
T1 sequence (Q9NNX6 70-404): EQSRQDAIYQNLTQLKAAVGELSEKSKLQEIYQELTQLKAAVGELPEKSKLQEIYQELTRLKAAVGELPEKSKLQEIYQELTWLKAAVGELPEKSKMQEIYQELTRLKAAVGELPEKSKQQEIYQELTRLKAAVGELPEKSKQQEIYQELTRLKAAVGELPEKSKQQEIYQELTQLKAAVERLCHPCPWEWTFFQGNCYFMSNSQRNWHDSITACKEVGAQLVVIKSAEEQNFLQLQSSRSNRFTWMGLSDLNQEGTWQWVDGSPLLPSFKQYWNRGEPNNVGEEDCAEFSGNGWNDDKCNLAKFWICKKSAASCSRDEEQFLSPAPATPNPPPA
Experiment: 2D-STD-TOCSYreF NMR experiments (binding epitope)
Conditions: for total relative STD per Man ring: normalized to the global observed STD; for % STD (normalized): normalized to largest STD in each molecule
Text: The interaction between DC-SIGN and the three Man-based 2-deoxy-fluoro oligosaccharides (Figure 1) was first analyzed using 2D-STD-TOCSYreF experiments (Figure 2). A long TOCSY mixing time (128 ms) was used to extend the polarization to all protons within the same spin system for each Man ring. The enhanced resolution of the 2D-TOCSYreF allowed the assignment of most of the STD NMR cross peaks with high reliability for the three fluorinated compounds (Figure 2 and Table 1). Generally speaking, the inherent loss of sensitivity due to the heteronuclear reF transfer in the 2D-STD-TOCSYreF experiments is overcompensated by the gained spectral dispersion.
Figure 2 2D-TOCSYreF off-resonance spectrum (red) and 2D-STD-TOCSYreF peaks (blue) obtained for 1 (top panel), 2 (central panel) and 3 (bottom panel) in the presence of DC-SIGN. The ^19F NMR frequencies are given in the abscissa axis and the ^1H NMR frequencies in the ordinate axis. The STD cross peaks are shifted to high field in the ^19F frequency to facilitate visual inspection. Every blue cross peak corresponds to the STD NMR intensity of the particular ^1H NMR nucleus in a given monosaccharide, which is encoded by the ^19F frequency. The ligand concentration was 1.4 mM in each case, with 9.14 μM of DC-SIGN tetramer, thus containing four carbohydrate recognition domains (CRD) (ligand/protein-CRD ratio is 38:1). The on-resonance irradiation was set to 0.85 ppm, with a saturation time of 2 s. The relative STD values, shown by colored circles, are obtained from the ratio between the corresponding peaks in the 2D STD-TOCSY-reF and 2D-TOCSYreF off-resonance spectra, and normalized to the largest STD in each molecule. The circles connected by a colored thin line correspond to overlapped signals in the spectrum, so that the STD intensity is shown as ‘spread’ between the corresponding ^1H nuclei (meaning each of these protons may contribute or not to the total STD observed). In this case, the added STD intensity is given. The total relative STD per Man ring for each molecule is also specified with a colored tag, using the same color code as the circles. TEXT PRINTED IN THE PICTURE: 1: % STD (Man II): 44 %; % STD (Man III): 9 %; % STD (Man I): 47 % | 2: % STD (Man III): 11 %; % STD (Man I): 89 % | 3: % STD (Man II): 70 %; % STD (Man III): 30 % DOUBTS OF THE COPYIST ABOUT THIS PICTURE: The percent tags are matched to the Man I/II/III rings by position and colour only. The measure '% STD' is printed only at the colour bar. / The percent tags are relative STD-NMR values per sugar ring (binding epitope), so it is uncertain whether they count as a result or belong to the excluded spectra.
Samples for the 2D STD-TOCSY-reF contained 9.14 µM ECD (tetramer) and 153 eq. of ligand (1.4 mM, the ratio ligand/protein (CRD) is 38:1) in each case. The 2D STD-TOCSY-reF setup consists on a proton saturation transfer scheme (^1Hprotein→^1Hligand-STD) with subsequent evolution through JHH couplings (TOCSY), to finally refocus the STD-edited information in the ^19F dimension (reF). As STD parameters, selective saturation was applied for 2 s using 90º PC9 pulses of 10 ms length, with on-resonance saturation set at 0.85 ppm and off-resonance at 60 ppm. The TOCSY mixing time used was 128 ms, and the corresponding JHF evolution and refocusing delays in the reF module were Δ^H = 10.4 ms and Δ^F = 6 ms, respectively. The relative saturation values (%) were calculated from the ratio between peaks in the 2D STD-TOCSY-reF spectrum and the corresponding ones in the off-resonance TOCSY-reF spectrum.

[1] = proton ManI-1, ligand 1.4 mM, 9.14 µM tetramer, 2 s saturation at 0.85 ppm

| SMILES | total relative STD per Man ring (Man I ring) [%] | total relative STD per Man ring (Man II ring) [%] | total relative STD per Man ring (Man III ring) [%] | % STD (normalized) (overlapped protons ManII-3/6) [%] | % STD (normalized) (overlapped protons ManII-4/5) [%] | % STD (normalized) (overlapped protons ManIII-1/2) [%] | % STD (normalized) [1] [%] | % STD (normalized) (proton ManI-2) [%] | % STD (normalized) (proton ManI-3) [%] | % STD (normalized) (proton ManII-1) [%] | % STD (normalized) (proton ManII-2) [%] | % STD (normalized) (proton ManI-4) [%] | % STD (normalized) (proton ManI-5) [%] | % STD (normalized) (proton ManIII-1) [%] | % STD (normalized) (proton ManIII-2) [%] | % STD (normalized) (overlapped protons ManIII-3/4/5/6) [%] |
| --- | --- | --- | --- | --- | --- | --- | --- | --- | --- | --- | --- | --- | --- | --- | --- | --- |
| CO[C@H]1O[C@H](CO[C@H]2O[C@H](CO)[C@@H](O)[C@H](O)[C@@H]2F)[C@@H](O)[C@H](O[C@H]2O[C@H](CO)[C@@H](O)[C@H](O)[C@@H]2F)[C@@H]1F [compound 1] | 47 | 44 | 9 | 47 | 52 | 31 | 16 | 42 | 100 | 19 | 31 |  |  |  |  |  |
| CO[C@H]1O[C@H](CO)[C@@H](O)[C@H](O[C@H]2O[C@H](CO)[C@@H](O)[C@H](O)[C@@H]2F)[C@@H]1F [compound 2] | 89 |  | 11 |  |  |  | 15 | 33 | 74 |  |  | 100 | 22 | 17 | 14 |  |
| CO[C@H]1O[C@H](CO[C@H]2O[C@H](CO)[C@@H](O)[C@H](O)[C@@H]2F)[C@@H](O)[C@H](O)[C@@H]1F [compound 3] |  | 70 | 30 | 86 | 100 |  |  |  |  | 31 | 45 |  |  | 33 | 31 | 47 |

Source: publication PMC7463913, “The Interaction of Fluorinated Glycomimetics with DC-SIGN: Multiple Binding Modes Disentangled by the Combination of NMR Methods and MD Simulations” (Pharmaceuticals, 2020)
